From ChEMBL document CHEMBL1909046, “DrugMatrix in vitro pharmacology data”

What was measured:
[1] = target: Delta-type opioid receptor (Homo sapiens, UniProt P41143); format: cell membranes, HEK293, Membrane; conditions: hek293; further: in other assays of this panel Not Active means under 50% inhibition at 10 µM
D(3) dopamine receptor = D(3) dopamine receptor (Homo sapiens, UniProt P35462); assay: DRUGMATRIX: Dopamine D3 radioligand binding (ligand: [3H] Spiperone); format: cell membranes, CHO, Membrane; conditions: cho
[2] = DRUGMATRIX: Leukotriene, BLT (LTB4) radioligand binding (ligand: [3H]LTB4); format: cell membranes, Membrane; conditions: u-937; Not Active = under 50% inhibition at 10 µM
[3] = target: Beta-2 adrenergic receptor (Homo sapiens, UniProt P07550); assay: DRUGMATRIX: Adrenergic beta2 radioligand binding (ligand: [3H] CGP-12177); format: cell membranes, Membrane; conditions: cho; Not Active = under 50% inhibition at 10 µM
[4] = DRUGMATRIX: Glutamate, NMDA, Phencyclidine radioligand binding (ligand: [3H] TCP); format: cell membranes, Rattus norvegicus, Wistar, Cerebral cortex, Membrane; conditions: Not Active = under 50% inhibition at 10 µM
Leukotriene C4 synthase = target: T1, Leukotriene C4 synthase (Cavia porcellus, UniProt A6XA80); format: tissue-based, Lung;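 further: enzyme inhibition assay of leukotriene C4 synthase, using LTA4 as the substrate; in other assays of this panel Not Active means under 50% inhibition at 10 µM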
T1 sequence (A6XA80 whole entry): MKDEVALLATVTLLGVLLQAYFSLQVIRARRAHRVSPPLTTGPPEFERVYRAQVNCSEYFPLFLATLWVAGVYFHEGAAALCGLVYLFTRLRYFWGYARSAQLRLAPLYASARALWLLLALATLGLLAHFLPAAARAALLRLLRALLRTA

Cytochrome P450 1A2 = target: T2, Cytochrome P450 1A2 (Homo sapiens, UniProt P05177); conditions: bti-tn-5b1-4; further: in other assays of this panel Not Active means under 50% inhibition at 10 µM
T2 sequence (P05177 whole entry): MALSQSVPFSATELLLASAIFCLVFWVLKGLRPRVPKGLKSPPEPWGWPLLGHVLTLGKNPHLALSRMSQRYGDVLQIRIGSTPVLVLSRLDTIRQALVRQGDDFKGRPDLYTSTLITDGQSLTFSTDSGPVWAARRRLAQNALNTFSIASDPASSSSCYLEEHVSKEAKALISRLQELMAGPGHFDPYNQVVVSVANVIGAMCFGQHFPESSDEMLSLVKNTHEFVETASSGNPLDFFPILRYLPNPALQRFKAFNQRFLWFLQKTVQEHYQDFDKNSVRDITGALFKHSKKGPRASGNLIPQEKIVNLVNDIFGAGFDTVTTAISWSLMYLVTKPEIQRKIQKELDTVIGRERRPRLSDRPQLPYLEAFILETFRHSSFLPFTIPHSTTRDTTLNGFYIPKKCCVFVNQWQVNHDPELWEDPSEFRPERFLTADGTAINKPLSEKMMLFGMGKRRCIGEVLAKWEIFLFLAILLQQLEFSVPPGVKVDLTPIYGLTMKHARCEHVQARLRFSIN

Sequence of Delta-type opioid receptor (P41143 whole entry): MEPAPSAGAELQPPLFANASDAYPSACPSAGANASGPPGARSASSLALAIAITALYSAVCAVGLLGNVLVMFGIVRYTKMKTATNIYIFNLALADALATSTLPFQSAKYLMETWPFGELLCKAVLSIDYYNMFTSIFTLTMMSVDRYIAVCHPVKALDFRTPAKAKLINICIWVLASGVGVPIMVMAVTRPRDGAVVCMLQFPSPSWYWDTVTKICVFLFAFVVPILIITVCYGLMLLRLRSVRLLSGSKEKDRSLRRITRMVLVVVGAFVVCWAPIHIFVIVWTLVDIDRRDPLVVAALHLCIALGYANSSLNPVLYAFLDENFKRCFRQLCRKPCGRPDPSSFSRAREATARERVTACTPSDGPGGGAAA
Sequence of Beta-2 adrenergic receptor (P07550 whole entry): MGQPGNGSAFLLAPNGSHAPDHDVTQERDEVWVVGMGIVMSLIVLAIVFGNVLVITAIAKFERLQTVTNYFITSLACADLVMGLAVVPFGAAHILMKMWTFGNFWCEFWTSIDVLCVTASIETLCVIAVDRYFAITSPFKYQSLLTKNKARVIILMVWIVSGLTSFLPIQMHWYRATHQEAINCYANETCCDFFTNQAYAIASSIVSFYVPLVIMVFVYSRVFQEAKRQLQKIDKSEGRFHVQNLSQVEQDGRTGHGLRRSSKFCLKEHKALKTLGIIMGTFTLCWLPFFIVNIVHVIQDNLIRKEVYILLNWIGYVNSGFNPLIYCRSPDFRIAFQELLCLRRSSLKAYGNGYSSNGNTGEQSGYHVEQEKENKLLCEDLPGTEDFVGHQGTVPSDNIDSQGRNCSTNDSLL
Sequence of D(3) dopamine receptor (P35462 whole entry): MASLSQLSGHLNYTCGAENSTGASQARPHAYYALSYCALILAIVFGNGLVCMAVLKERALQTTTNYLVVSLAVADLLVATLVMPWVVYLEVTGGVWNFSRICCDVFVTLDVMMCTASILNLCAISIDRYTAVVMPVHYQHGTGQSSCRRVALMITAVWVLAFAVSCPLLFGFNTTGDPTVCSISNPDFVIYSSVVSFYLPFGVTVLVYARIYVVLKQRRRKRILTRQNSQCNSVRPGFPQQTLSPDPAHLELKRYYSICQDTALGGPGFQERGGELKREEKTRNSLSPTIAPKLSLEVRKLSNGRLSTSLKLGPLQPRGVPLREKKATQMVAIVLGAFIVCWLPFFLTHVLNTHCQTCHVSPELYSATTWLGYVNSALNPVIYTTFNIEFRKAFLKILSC

C=CCC1(C(C)CCC)C(=O)NC(=O)NC1=O (stereo not given) [SECOBARBITAL]
Not Active: IC50 [1] | IC50 (D(3) dopamine receptor) | IC50 [2] | Ki [2] | IC50 [3] | IC50 [4] | Ki [4] | IC50 (Leukotriene C4 synthase) | IC50 (Cytochrome P450 1A2) | Ki (Cytochrome P450 1A2)

Nc1c2c(nc3ccccc13)CCCC2 [TACRINE]
Not Active: IC50 [1] | IC50 (D(3) dopamine receptor) | IC50 [2] | Ki [2] | IC50 [3] | IC50 [4] | Ki [4] | IC50 (Leukotriene C4 synthase) | IC50 (Cytochrome P450 1A2) | Ki (Cytochrome P450 1A2)

N[C@@H]1[C@H]2CN(c3nc4c(cc3F)c(=O)c(C(=O)O)cn4-c3ccc(F)cc3F)C[C@@H]12 [TROVAFLOXACIN]
Not Active: IC50 [1] | IC50 (D(3) dopamine receptor) | IC50 [2] | Ki [2] | IC50 [3] | IC50 [4] | Ki [4] | IC50 (Leukotriene C4 synthase) | IC50 (Cytochrome P450 1A2) | Ki (Cytochrome P450 1A2)

CC1(C)O[C@@H]2C[C@H]3[C@@H]4CCC5=CC(=O)C=C[C@]5(C)[C@@]4(F)[C@@H](O)C[C@]3(C)[C@]2(C(=O)CO)O1 [TRIAMCINOLONE ACETONIDE]
Not Active: IC50 [1] | IC50 (D(3) dopamine receptor) | IC50 [2] | Ki [2] | IC50 [3] | IC50 [4] | Ki [4] | IC50 (Leukotriene C4 synthase) | IC50 (Cytochrome P450 1A2) | Ki (Cytochrome P450 1A2)

NC[C@H]1CC[C@H](C(=O)O)CC1 [TRANEXAMIC ACID]
Not Active: IC50 [1] | IC50 (D(3) dopamine receptor) | IC50 [2] | Ki [2] | IC50 [3] | IC50 [4] | Ki [4] | IC50 (Leukotriene C4 synthase) | IC50 (Cytochrome P450 1A2) | Ki (Cytochrome P450 1A2)

COc1c(C)c2c(c(O)c1C/C=C(\C)CCC(=O)O)C(=O)OC2 [MYCOPHENOLIC ACID]
Not Active: IC50 [1] | IC50 (D(3) dopamine receptor) | IC50 [2] | Ki [2] | IC50 [3] | IC50 [4] | Ki [4] | IC50 (Leukotriene C4 synthase) | IC50 (Cytochrome P450 1A2) | Ki (Cytochrome P450 1A2)

N[C@@H](Cc1ccc(N(CCCl)CCCl)cc1)C(=O)O
Not Active: IC50 [1] | IC50 (D(3) dopamine receptor) | IC50 [2] | Ki [2] | IC50 [3] | IC50 [4] | Ki [4] | IC50 (Leukotriene C4 synthase) | IC50 (Cytochrome P450 1A2) | Ki (Cytochrome P450 1A2)

CO[C@H]1/C=C/O[C@@]2(C)Oc3c(C)c(O)c4c(O)c(c(/C=N/N5CCN(C)CC5)c(O)c4c3C2=O)NC(=O)/C(C)=C\C=C\[C@H](C)[C@H](O)[C@@H](C)[C@@H](O)[C@@H](C)[C@H](OC(C)=O)[C@@H]1C [RIFAMPIN]
Not Active: IC50 [1] | IC50 (D(3) dopamine receptor) | IC50 [2] | Ki [2] | IC50 [3] | IC50 [4] | Ki [4] | IC50 (Leukotriene C4 synthase) | IC50 (Cytochrome P450 1A2) | Ki (Cytochrome P450 1A2)
